Laboratory results as given in patent US10577362B2, “Substituted 2, 4-diamino-quinoline derivatives for use in the treatment of proliferative diseases” (GENOSCIENCE PHARMA, priority 2016, dated 2020).
Where a name gives a salt, the structure may show the parent alone. Read-outs that look alike come from different tables or passages of the source.

Key:
Type in all cases: cell-based, human
[1] = system: MOLM-14 (acute myeloid leukemia) cell line; test: CellTiter-Glo luminescent cell viability assay, MOLM-14; conditions: for EC50: MOLM-14 cell line, 72 h incubation, CellTiter-Glo, read-out: EC50, growth inhibition of MOLM-14; for viability at 4 µM: MOLM-14, compound at 4 μM; for viability at 4 µM / viability at 10 µM: 72 h; for viability at 10 µM: MOLM-14, compound at 10 μM
Description: (§1) All cell lines were maintained in medium containing 1% penicillin-streptomycin (Dutscher, P06-07100) and 10% Fetal Bovine Serum (Hyclone Dutscher, RZK35922) cultured at 37° C. with 5% CO2. HepG2 (hepatocellular carcinoma), cell line was cultured in Dulbecco's modified Eagle's medium low glucose (Gibco, 21885025), Huh7 (hepatocellular carcinoma), HCT-116 (colorectal carcinoma), PANC-1 (prancreatic carcinoma) and A375 (malignant melanoma) cell lines were cultured in Dulbecco's modified Eagle's medium (Dutscher, L0103). MOLM-14 (acute myeloid leukemia) cell line was maintained in MEM alpha medium (Gibco, 22561-021). 786-0 (renal adenocarcinoma) cell lines were maintained in RPMI 1640 medium (Dutscher, L0498).
(§2) Cell viability was measured using the CellTiter-Glo® luminescent cell viability assay as described by the manufacturer (Promega, Ref G7571) using an Infinite F200Pro luminometer (Tecan). Briefly, for adherent cells, cells were plated onto 96-well plates (white with clear bottom) in 90 μL of media per well and were allowed to grow overnight before the assay. For cells growing in suspension, cells were plated onto 96-well plates 1 h before the assay.
(§3) Compounds were resuspended in H2O or DMSO and added at different concentrations to each well, and cell cultures were incubated for 72 h. Each diluent (H2O or DMSO) were used as a control, and all compounds were tested in a constant percentage of H2O or DMSO. On the day of the reading, plates are equilibrated 30 min at room temperature before the addition of 100 μL of CellTiter-Glo® and luminescence was measured using an Infinite F200Pro (Tecan). % cell viability were expressed as a percentage of the signal obtained for cell cultures treated with diluent. EC50 values were determined as the dose of compound required to reduce luminescent values to 50% of the signal obtained for cell cultures treated with diluent. The experimental data were analyzed using a computer program, Graphpad Prism v5 (GraphPad Software, Inc. La Jolla, Calif.). All points were at least done in duplicate.

[2] = system: A375 (malignant melanoma) cell line; test: CellTiter-Glo luminescent cell viability assay, A375; conditions: for EC50: A375 cell line, 72 h incubation, CellTiter-Glo, read-out: EC50, growth inhibition of A375; for viability at 4 µM: A375, compound at 4 μM; for viability at 4 µM / viability at 10 µM: 72 h; for viability at 10 µM: A375, compound at 10 μM
Description: as §1, §2, §3

[3] = system: HCT-116 (colorectal carcinoma) cell line; test: CellTiter-Glo luminescent cell viability assay, HCT-116; conditions: for EC50: HCT-116 cell line, 72 h incubation, CellTiter-Glo, read-out: EC50, growth inhibition of HCT-116; for viability at 4 µM: HCT-116, compound at 4 μM; for viability at 4 µM / viability at 10 µM: 72 h; for viability at 10 µM: HCT-116, compound at 10 μM
Description: as §1, §2, §3

[4] = system: Huh7 (hepatocellular carcinoma) cell line; test: CellTiter-Glo luminescent cell viability assay, Huh7; conditions: for EC50: Huh7 cell line, 72 h incubation, CellTiter-Glo, read-out: EC50, growth inhibition of Huh7; for viability at 4 µM: Huh7, compound at 4 μM; for viability at 4 µM / viability at 10 µM: 72 h; for viability at 10 µM: Huh7, compound at 10 μM
Description: as §1, §2, §3

[5] = system: 786-O (renal adenocarcinoma) cell line; test: CellTiter-Glo luminescent cell viability assay, 786-O; conditions: for EC50: 786-O cell line, 72 h incubation, CellTiter-Glo, read-out: EC50, growth inhibition of 786-O; for viability at 4 µM / viability at 10 µM: 786-O, 72 h; for viability at 4 µM: compound at 4 μM; for viability at 10 µM: compound at 10 μM
Description: as §1, §2, §3

[6] = system: HepG2 (hepatocellular carcinoma) cell line; test: CellTiter-Glo luminescent cell viability assay, HepG2; conditions: for EC50: HepG2 cell line, 72 h incubation, CellTiter-Glo, read-out: EC50, growth inhibition of HepG2; for viability at 4 µM / viability at 10 µM: HepG2, HepG, 72 h; for viability at 4 µM: compound at 4 μM; for viability at 10 µM: compound at 10 μM
Description: as §1, §2, §3

EC50 ([1]; Homo sapiens) [µM]	EC50 ([2]; Homo sapiens, A-375) [µM]	EC50 ([3]; Homo sapiens) [µM]	EC50 ([4]; Homo sapiens, Huh-7) [µM]	EC50 ([5]; Homo sapiens, 786-0) [µM]	EC50 ([6]; Homo sapiens) [µM]	SMILES	viability at 4 µM ([1]; Homo sapiens) [%]	viability at 10 µM ([1]; Homo sapiens) [%]	viability at 4 µM ([2]; Homo sapiens, A-375) [%]	viability at 10 µM ([2]; Homo sapiens, A-375) [%]	viability at 4 µM ([3]; Homo sapiens) [%]	viability at 10 µM ([3]; Homo sapiens) [%]	viability at 4 µM ([4]; Homo sapiens, Huh-7) [%]	viability at 10 µM ([4]; Homo sapiens, Huh-7) [%]	viability at 4 µM ([5]; Homo sapiens, 786-0) [%]	viability at 10 µM ([5]; Homo sapiens, 786-0) [%]	viability at 4 µM ([6]; Homo sapiens) [%]	viability at 10 µM ([6]; Homo sapiens) [%]	other results
						OC[C@@H]1CCCN1c1cc(NCc2ccc(Cl)cc2)nc2ccccc12 [Compound 2308, (2S) 2-(4-chlorobenzylamino)-4-[2-(hydroxymethyl)pyrrolidin-1-yl]quinoline, hydrochloride]													EC50 [1]: 0.5 to 5 µM; EC50 [2]: 0.5 to 5 µM; EC50 [3]: 5 to 10 µM; EC50 [4]: 0.5 to 5 µM; EC50 [5]: 5 to 10 µM; EC50 [6]: 0.5 to 5 µM
0.5 to 5	0.5 to 5	0.5 to 5	5 to 10	0.5 to 5	0.5 to 5	Cc1ccc2c(N3CCC(NC(C)(C)C)CC3)cc(NCc3ccc(Cl)cc3)nc2c1F [Compound 564, 2-(4-chlorobenzylamino)-4-[4-(tert-butylamino)piperidin-1-yl]-7-methyl-8-fluoroquinoline]													
0.5 to 5	0.5 to 5	5 to 10	0.5 to 5	0.5 to 5	0.5 to 5	O[C@@H]1CCN(c2cc(NCc3ccc(Cl)cc3)nc3ccccc23)C1 [Compound 2988, (3R) 2-(4-chlorobenzylamino)-4-(3-hydroxypyrrolidin-1-yl)quinoline hydrochloride]													
0.5 to 5	0.5 to 5	0.5 to 5	0.5 to 5	0.5 to 5	0.5 to 5	Clc1ccc(CNc2cc(N3CC[C@@H](Oc4ccccn4)C3)c3ccccc3n2)cc1 [Compound 3026, (3R) 2-(4-chlorobenzylamino)-4-[3-(pyridin-2-yloxy)pyrrolidin-1-yl]quinoline hydrochloride]													
						CC(C)CN(Cc1ccc(Cl)cc1)c1cc(N2CCC(NC(C)(C)C)CC2)c2ccccc2n1 [Compound 220, 2-(N-4-chlorobenzyl-N-isobutylamino)-4-[4-(tert-butylamino)-piperidin-1-yl]-quinoline]	78.9	52.6	76.3	0.3	60.9	0.3	81.5	0.3	74.6	0.4	79.6	31	
						Cc1cc(Nc2nc3ccccc3c(N3CCC(NC(C)(C)C)CC3)c2C#N)ccc1Nc1nccc(-c2cccnc2)n1 [Compound 3131CN, 2-[4-(4-(pyridin-3-yl)pyrimidin-2-ylamino)-3-methylphenylamino]-3-cyano-4-(4-tert-butylaminopiperidin-1-yl)quinoline]	80.1	7.3	79.4	0.1	63.9	0.1	87	69.8	42.6	0.1	80.6	0.1	
						N#Cc1c(NCc2ccc(Cl)cc2)nc2ccccc2c1N1CCCC(Oc2cccc(F)c2)C1 (centres unmarked) [Compound 3240CN, 2-(4-chlorobenzylamino)-3-cyano-4-[3-(3-fluorophenoxy)piperidin-1-yl]quinoline]	106	113	95.6	94.9	99.4	95.8	123	113	98.2	94.5	97		
5 to 10	5 to 10	5 to 10	5 to 10	0.5 to 5	5 to 10	Clc1ccc(CNc2cc(N3CC(N4CCOCC4)C3)c3ccccc3n2)cc1 [Compound 118, 2-(4-chlorobenzylamino)-4-[3-(morpholin-4-yl)azetidin-1-yl]quinoline hydrochloride]													
						N#Cc1c(NCc2ccc(Cl)cc2)nc2ccccc2c1N1CCC(Oc2ccncc2)C1 (centres unmarked) [Compound 3344CN, 2-(4-chlorobenzylamino)-3-cyano-4-{3-[(pyridin-4-yl)oxy]pyrrolidin-1-yl}quinoline]	103	57.8	83.7	60.3	91.6	48	50.2	40.1	81.9	52.6	94.1	62.7	
						COc1ccc(OC2CCN(c3c(C#N)c(NCc4ccc(Cl)cc4)nc4ccccc34)C2)cc1 (centres unmarked) [Compound 3334CN, 2-(4-chlorobenzylamino)-3-cyano-4-[3-(4-methoxyphenoxy)pyrrolidin-1-yl]quinoline]	105	96.5	93.2	90	92.8	88.6	89.9	94.4	93.6	91.2	97.7	89.1	
0.5 to 5	0.5 to 5	0.5 to 5	0.5 to 5	0.5 to 5	0.5 to 5	Clc1ccc(CNc2cc(N3CC[C@H](Oc4ccccn4)C3)c3ccccc3n2)cc1 [Compound 3098, (3S) 2-(4-chlorobenzylamino)-4-[3-(pyridin-2-yloxy)pyrrolidin-1-yl]quinoline hydrochloride]													
0.5 to 5	0.5 to 5	0.5 to 5	0.5 to 5	0.5 to 5	0.5 to 5	Clc1ccc(CNc2cc(N3CC[C@@H](Oc4ccccc4)C3)c3ccccc3n2)cc1 [Compound 3012, (3R) 2-(4-chlorobenzylamino)-4-[3-(phenoxy)pyrrolidin-1-yl]quinoline hydrochloride]													
0.5 to 5	5 to 10	0.5 to 5	5 to 10	0.5 to 5	0.5 to 5	Clc1ccc(CNc2cc(N3CCC(Oc4ccccc4)CC3)c3ccccc3n2)cc1 [Compound 2940, 2-(4-chlorobenzylamino)-4-(4-phenoxypiperidin-1-yl)-quinoline hydrochloride]													
0.5 to 5	0.5 to 5	0.5 to 5	0.5 to 5	0.5 to 5	0.5 to 5	CC(C)(C)NC1CCN(c2c(C#N)c(Nc3ccc(Cl)cc3)nc3ccccc23)CC1 [Compound 3258CN, 2-(4-chlorophenylamino)-3-cyano-4-[4-(tert-butylamino)piperidin-1-yl]quinoline]	79.8	1	9.7	0.8	0.7	0.6	73.8	1.8	4.4	0.7	44.3	0.8	
